pIC50: −log10 of the molar value.

Chain of Leukotriene B4 receptor 1 (Q15722 whole entry): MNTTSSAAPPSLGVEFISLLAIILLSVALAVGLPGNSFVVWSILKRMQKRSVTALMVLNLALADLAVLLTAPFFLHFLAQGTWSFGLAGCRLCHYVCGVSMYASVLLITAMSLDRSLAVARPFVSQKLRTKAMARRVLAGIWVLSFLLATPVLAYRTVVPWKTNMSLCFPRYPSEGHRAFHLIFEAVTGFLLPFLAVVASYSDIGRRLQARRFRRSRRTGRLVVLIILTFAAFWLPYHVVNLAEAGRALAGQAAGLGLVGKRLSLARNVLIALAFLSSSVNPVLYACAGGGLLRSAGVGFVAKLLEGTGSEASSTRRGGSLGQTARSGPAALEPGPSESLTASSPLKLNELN

This assay addresses Leukotriene B4 receptor 1 (Homo sapiens, UniProt Q15722). Kind of assay: Compound was tested for inhibition against binding of radioligand [3H]LTB4 to Leukotriene B4 receptor in human neutrophil membranes. Format: cell membranes.
In the case of `[N-]=[N+]=Nc1ccc(CCCCC(O)/C=C/C2CCCC(O)(CC(=O)O)C2)cc1` (stereo not drawn), the pIC50 was 5.70.
Take `[N-]=[N+]=Nc1ccc(CCCCC(O)/C=C/C2CCCC(O)(CC(=O)O)C2)cc1I` (stereo not drawn): the pIC50 was < 5.00.
Regarding `CN(C)C(=O)CC1(O)CCCC(/C=C/C(O)CCCCc2ccccc2)C1` (stereo not drawn), the pIC50 was 7.40.
Regarding `O=C(O)CC1(O)CCCC(/C=C/C(O)CCCCc2ccccc2)C1` (stereo not drawn), the pIC50 is 6.52.
On to `CN(C)C(=O)CC1(O)CCCC(/C=C/C(O)CCCCc2ccc(N=[N+]=[N-])cc2)C1` (stereo in doubt), for which the pIC50 is 6.15.
In the case of `CN(C)C(=O)CC1(O)CCCC(/C=C/C(O)CCCCc2ccc(N=[N+]=[N-])c(I)c2)C1` (stereo in doubt) it was 5.22; in that of `CN(C)C(=O)CC1(O)CCCC(/C=C/C(O)CCCCc2ccc(N=[N+]=[N-])cc2)C1` (stereo in doubt; 4b), 5.70; in that of `CN(C)C(=O)CC1(O)CCCC(/C=C/C(O)CCCCc2ccc(N=[N+]=[N-])c(I)c2)C1` (stereo in doubt; 6b), < 5.00.

The record behind these values is ChEMBL document CHEMBL1133339, “Leukotriene B4 photoaffinity probes: design, synthesis and evaluation of new arylazide-1,3-disubstituted cyclohexanes” (Bioorg Med Chem Lett, 2000).
